We go through one molecule from paper PMC9511777, “Novel lipid-coated mesoporous silica nanoparticles loaded with thymoquinone formulation to increase its bioavailability in the brain and organs of Wistar rats” (BMC Pharmacology & Toxicology, 2022).

The nature of data set [1]: Distribution of TQ in brain areas, liver and kidney (HPLC). It counts as in vivo, Wistar rats. Conditions: male, Wistar, rat, oral, 60 mg/kg TQ, read-out: TQ distribution, Mean ± SEM. The method, then:
Twenty-eight male Wistar rats with an average weight of 110±10 gm were allocated into four random groups (seven rats/group). Animals were kept in fixed housing circumstances (12 h light/dark cycles) and temperature (25 °C) for three days to acclimatize. The Institutional Animal Ethics Committee approved the protocol for the in vivo study (CU-I-F-28-21).
(§1) The four groups received oral dose day by day for 14 days as follows: The first group: the negative control group, received 1:9; DMSO: Saline. The second group: the free TQ group, received a 60 mg/kg free TQ (3). The third group: The MSNs group received a 60 mg/kg MSNs dose. The fourth group: the LB-MSNs group, received a dose of 60 mg/kg MSNs loaded with TQ and coated with lipids. On day 14, rats were decapitated, and rat brains, liver, and kidneys were dissected for histopathological examination and oxidative stress measurements. The duration time of our experiment and the TQ doses were determined following Sheikhbahaei et al. (2016). 's work.
(§2) On the 14th day of the experiment, all the experimental groups were sacrificed by decapitation. The brains of each animal were taken away after they were removed and put in an ice-cold Petri dish. The brain was sectioned into different regions (hippocampus, cortex, hypothalamus, thalamus, medulla, midbrain, cerebellum, and striatum). Each brain region was weighed and frozen until used in further measurements. Heidolph DIAX 900 was used to homogenize the brain sections weighed in 4 ml of ice-cold PBS (50 mM, pH 7.4). Then, for 15 minutes, the homogenates were separated using a high-speed cooling centrifuge. The centrifuge was set to 8000 RPM and 4°C (VS-18000 M small size, high speed, refrigerated centrifuge, Korea). The pure supernatant was collected and stored at -20°C for further analysis.
TQ was chromatographically identified at room temperature 25 °C. The mobile phase was 50: 30: **20 v/v/v methanol, acetonitrile, and potassium dihydrogen phosphate buffer (20 mM, pH 4.5), isocratically injected at a flow rate of 1 ml/min using the HPLC apparatus's C18 column (25 cm4.6 mm) (YL 9100 HPLC, USA).

In data set [2] the test system is Nitric oxide (NO) levels. Kind of data set: Nitric oxide (NO) levels in tissues (Griess reaction). It counts as in vivo, Wistar rats. Conditions: all the tested organs; oral 60 mg/kg, 14 days. The method, then: as §1
(§3) On the 14th day of the experiment, all the experimental groups were sacrificed by decapitation. […]
The nitric oxide assay was performed according to the Griess reaction method using biodiagnostic kit No. 25 33, Egypt. […] Absorption was measured using a spectrophotometer at […] (Jenway UV-6420; Barloworld Scientific, Essex, UK). NO levels were quantified as nitrite using the Griess reagent, according to Moshage et al..
(§4) We used The Statistical Package for Social Sciences (SPSS) software (version 19) to analyze the data. The mean and standard error of the results were calculated. […] The percentage difference, which reflects the percent change in value compared to the control, was also assessed. %Difference%D=treatedvalue-controlvalue/controlvalue×100%
Background: The Griess reaction detects nitrite, a stable product of nitric oxide.

Data set [3] deals with Lipid peroxidation (MDA) levels. Kind of data set: Lipid peroxidation (MDA) levels in tissues. It counts as in vivo, Wistar rats. Conditions: oral 60 mg/kg, 14 days. The procedure:
as §1, §2
MDA was determined as a marker of lipid peroxidation using a method developed by Begona Ruiz-Larrea et al., which entailed detecting the thiobarbituric acid-reactive molecules. […] A spectrophotometer was used to measure the absorbance of the generated compound at 532 nm (Jenway UV-6420; Barloworld Scientific, Essex, UK).
as §4

Data set [4] relates to Reduced glutathione (GSH) levels. Kind of data set: Reduced glutathione (GSH) levels in tissues (Ellman's method). It counts as in vivo, Wistar rats. Conditions: oral 60 mg/kg, 14 days. The method, then:
as §1, §3
According to Ellman's method, the determination of Reduced Glutathione concentration (GSH) required using Biodiagnostic kit No. GR 25 11, Egypt. Ellman's method measured reduced glutathione levels, as the sulfhydryl group of […] lowers Ellman's reagent and produces 2-Nitro-smercaptobenzoic acid. The yellow-colored nitro-mercaptobenzoic acid was detected at 412 nm using a spectrophotometer (Jenway UV-6420; Barloworld Scientific, Essex, UK).
We used The Statistical Package for Social Sciences (SPSS) software (version 19) to analyze the data. The mean and standard error of the results were calculated. […]
For orientation: Ellman's reagent forms a yellow product with free thiols.

Data set [5] has as its system Catalase activity. Kind of data set: Catalase activity in tissues (Aebi's protocol). It counts as in vivo, Wistar rats. Conditions: oral 60 mg/kg, 14 days. The procedure: as §1, §3
The catalase activity was determined according to Aebi’s protocol (spectrophotometry) using Biodiagnostic Kit No. CA 25 1, Egypt. […] The chromophore's absorbance at 510 nm is measured using a spectrophotometer (Jenway UV-6420; Barloworld Scientific, Essex, UK).
as §4

Data set [6] concerns Wistar rats. Kind of data set: Histopathological examination of the kidney, liver, and different brain areas (H & E). Conditions: H & E x400, oral 60 mg/kg, 14 days. It counts as in vivo. The method, then: as §1
Each group's brain, liver, and kidney were fixed in a formalin buffered solution (10%) for twenty-four hours. Fixed specimens were rinsed with tap water before dehydrating with methyl, ethyl, and absolute dilutions. Specimens were cleaned in xylene and embedded in paraffin wax for 24 hours in a 56°C hot air oven. Microtome blocks of Paraffin bees wax tissue were sectioned at 8 microns on a slide, collected on glass slides, and removed paraffin stained with hematoxylin and eosin (H & E) stains. A light microscope was used to examine the slides (Zeiss, Germany).

For data set [7], the system named is NO and MDA metabolites. Also on record: method as in PMID 22309035. Conditions: rat brain; 2, 5, or 10 mg/kg doses; cited from earlier work.

Where two headings read alike, the source gives them in different places.

In the case of `CC1=CC(=O)C(C(C)C)=CC1=O` [TQ, 2-isopropyl-5-methyl-1,4-benzoquinone], the concentration at 14 days in data set [1] (Cerebellum) stood at 48 ± 18 ng/g; in data set [1] (Cortex), 25 ± 4 ng/g; in data set [1] (Hippocampus), 2 ± 0.3 ng/g; in data set [1] (Hypothalamus) it was 10 ± 0.3 ng/g; in data set [1] (Kidney) it was 112 ± 19 ng/g; in data set [1] (Liver), 201 ± 24 ng/g. Besides, the concentration at 14 days amounted to 6 ± 1 ng/g in data set [1] (Medulla), 7 ± 1 ng/g in data set [1] (Midbrain), 13 ± 1 ng/g in data set [1] (Striatum) and 4 ± 1 ng/g in data set [1] (Thalamus). Besides, the “NO level change compared with negative control group” value in data set [2] was “nonsignificant changes”. Further, in data set [3] (all tested areas except the medulla), the “MDA concentration change compared with control” value is on record as “nonsignificant changes”. Moreover, the “MDA level, significant increase compared with control” value in data set [3] (liver) came out at 67.01%. Further, in data set [3] (medulla), the “MDA level, significant decrease compared with control” value was 60.95%. In addition, the “GSH level change compared with negative control group” value in data set [4] (all investigated areas except the cerebellum) is on record as “no significant changes”. Moreover, the “GSH level, significant increase compared with control” value in data set [4] (cerebellum) is 181.98%. Besides, the “catalase activity change compared with negative control group” value in data set [5] (all investigated areas except cerebellum, brain, kidney, hippocampus) is “no significant differences”. Moreover, the “catalase activity, significant difference compared with negative control (direction not given)” value in data set [5] (cerebellum) came to 55.4%. Also, the renal histopathological alterations result in data set [6] is “mild histopathological alterations”. Also, in data set [7], the “NO and MDA metabolites in the hippocampus” value is “decreased”.
